What all share (assay type): cell-based
Assay [1] has as its system Mannheimia haemolytica MH 6357 (M7/2, reference strain, cattle infection strain). The assay can be described thus: MIC, broth-microdilution (CLSI VET01-A4), strain MH 6357. The settings on record: Mannheimia haemolytica strain MH 6357, broth-microdilution; unit assumed. The essentials:
(§1)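 MIC is the lowest compound concentration showing no visible growth by eye, read from doubling-dilution microdilution trays. Method followed CLSI VET01-A4, with interpretation under CLSI VET01-S3.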
A general note: Broth dilution looks for growth in wells or tubes with falling amounts of substance.

The subject of assay [2] is Mannheimia haemolytica MH 6374 (ATCC 33396, reference strain). The assay can be described thus: MIC, broth-microdilution (CLSI VET01-A4), strain MH 6374. The following applies: Mannheimia haemolytica strain MH 6374, broth-microdilution; unit assumed. The gist of the method:
as §1

The subject of assay [3] is Mannheimia haemolytica MH 10720 (154, BRD field isolate). The assay can be described thus: MIC, broth-microdilution (CLSI VET01-A4), strain MH 10720. The following applies: Mannheimia haemolytica strain MH 10720, broth-microdilution; unit assumed. The gist of the method: as §1
For assay [4], the system named is Mannheimia haemolytica MH 12587 (1071, BRD field isolate, macrolide-resistance: erm+, E+). The assay can be described thus: MIC, broth-microdilution (CLSI VET01-A4), strain MH 12587. The following applies: Mannheimia haemolytica strain MH 12587, broth-microdilution; unit assumed. The gist of the method: as §1
Assay [5] relates to Mannheimia haemolytica MH 13065 (XB0446-6003.9, BRD field isolate). The assay can be described thus: MIC, broth-microdilution (CLSI VET01-A4), strain MH 13065. The following applies: Mannheimia haemolytica strain MH 13065, broth-microdilution; unit assumed. The gist of the method:
as §1

In assay [6] the test system is Mannheimia haemolytica MH 13093 (XB0472-6014.1, BRD field isolate). The assay can be described thus: MIC, broth-microdilution (CLSI VET01-A4), strain MH 13093. The settings on record: Mannheimia haemolytica strain MH 13093, broth-microdilution; unit assumed. The gist of the method: as §1
In assay [7] the test system is Pasteurella multocida PM 6267 (P 2225 (L386), reference strain, mouse infection strain). The assay can be described thus: MIC, broth-microdilution (CLSI VET01-A4), strain PM 6267. The following applies: Pasteurella multocida strain PM 6267, broth-microdilution; unit assumed. The gist of the method: as §1
The test system of assay [8] is Pasteurella multocida PM 6391 (ATCC 43137, reference strain). The assay can be described thus: MIC, broth-microdilution (CLSI VET01-A4), strain PM 6391. The following applies: Pasteurella multocida strain PM 6391, broth-microdilution; unit assumed. The essentials:
as §1

For assay [9], the system named is Pasteurella multocida PM 10775 (080130003051, BRD field isolate). The assay can be described thus: MIC, broth-microdilution (CLSI VET01-A4), strain PM 10775. The settings on record: Pasteurella multocida strain PM 10775, broth-microdilution; unit assumed. The gist of the method: as §1
Assay [10] has as its system Pasteurella multocida PM 12080 (IV102277-0093, BRD field isolate). The assay can be described thus: MIC, broth-microdilution (CLSI VET01-A4), strain PM 12080. The following applies: Pasteurella multocida strain PM 12080, broth-microdilution; unit assumed. The gist of the method: as §1

Converted amounts (≈) assume the structure as drawn.

With `CC(C)(O)C(NC(=O)c1ccc(C#Cc2ccc(CNCC3CCCO3)cc2)cc1)C(=O)NO` (centres unmarked) [Compound 234], the MIC MH 6357 in assay [1] was determined as 6.3 µg/mL (≈ 13.5 µM). Moreover, in assay [2], the MIC MH 6374 is 3.1 µg/mL (≈ 6.66 µM). The compound also yielded an MIC MH 10720 in assay [3] of 0.4 µg/mL (≈ 0.859 µM). The MIC MH 12587 in assay [4] was found to be 6.3 µg/mL (≈ 13.5 µM). The MIC MH 13065 in assay [5] was 3.1 µg/mL (≈ 6.66 µM). The compound also had an MIC MH 13093 in assay [6] of 6.3 µg/mL (≈ 13.5 µM). Also, the MIC PM 6267 in assay [7] is not above 0.1 µg/mL. Further, the MIC PM 6391 in assay [8] came out at 0.4 µg/mL (≈ 0.859 µM). The MIC PM 10775 in assay [9] is not above 0.1 µg/mL. The MIC PM 12080 in [10] is 0.2 µg/mL (≈ 0.43 µM).
Turning to `CSC(C)(C)[C@H](NC(=O)c1ccc(C#Cc2ccc(CNC3CC3)cc2)cc1)C(=O)NO` [Compound 235], in [1], the MIC MH 6357 amounted to 0.4 µg/mL (≈ 0.886 µM). The MIC MH 6374 in assay [2] came out at 0.8 µg/mL (≈ 1.77 µM). In assay [3], this compound showed an MIC MH 10720 not above 0.1 µg/mL. In [4], this compound had an MIC MH 12587 of 1.6 µg/mL (≈ 3.54 µM). Also, the MIC MH 13065 in [5] is 0.4 µg/mL (≈ 0.886 µM). For the same compound, the MIC MH 13093 in [6] came to 0.4 µg/mL (≈ 0.886 µM). The compound further registered an MIC PM 6267 in assay [7] not above 0.1 µg/mL. The MIC PM 6391 in [8] was not above 0.1 µg/mL. For the same compound, in assay [9], the MIC PM 10775 was not above 0.1 µg/mL. Moreover, the MIC PM 12080 in assay [10] is not above 0.1 µg/mL.
`CSC(C)(C)[C@H](NC(=O)c1ccc(C#Cc2ccc(CN3CCOCC3)cc2)cc1)C(=O)NO` [Compound 238]: the MIC MH 6357 in assay [1] worked out at 1.6 µg/mL (≈ 3.32 µM). This compound returned an MIC MH 6374 in assay [2] of 3.1 µg/mL (≈ 6.44 µM). In addition, the MIC MH 10720 in [3] is 0.8 µg/mL (≈ 1.66 µM). The MIC MH 12587 in assay [4] stood at 3.1 µg/mL (≈ 6.44 µM). The MIC MH 13065 in [5] was 1.6 µg/mL (≈ 3.32 µM). In assay [6], the MIC MH 13093 was determined as 1.6 µg/mL (≈ 3.32 µM). Further, the MIC PM 6267 in [7] was not above 0.1 µg/mL. This compound had an MIC PM 6391 in [8] not above 0.1 µg/mL. Besides, in assay [9], the MIC PM 10775 is not above 0.1 µg/mL. In addition, in [10], the MIC PM 12080 was not above 0.1 µg/mL.
In turn, `CSC(C)(C)[C@H](NC(=O)c1ccc(C#Cc2ccc(CNCc3ccccc3)cc2)cc1)C(=O)NO` [Compound 239] returned an MIC MH 6357 in assay [1] of 0.8 µg/mL (≈ 1.59 µM). This compound also gave an MIC MH 6374 in [2] of 1.6 µg/mL (≈ 3.19 µM). Also, the MIC MH 10720 in [3] was 0.2 µg/mL (≈ 0.399 µM). In assay [4], this compound gave an MIC MH 12587 of 1.6 µg/mL (≈ 3.19 µM). In assay [5], the MIC MH 13065 is 0.8 µg/mL (≈ 1.59 µM). This compound also registered an MIC MH 13093 in assay [6] of 0.8 µg/mL (≈ 1.59 µM). The compound also showed an MIC PM 6267 in assay [7] of 0.2 µg/mL (≈ 0.399 µM). This compound registered an MIC PM 6391 in assay [8] of 0.4 µg/mL (≈ 0.797 µM). In assay [9], this compound returned an MIC PM 10775 not above 0.1 µg/mL. In assay [10], the MIC PM 12080 amounted to 0.4 µg/mL (≈ 0.797 µM).
`COc1ccc(CNCc2ccc(C#Cc3ccc(C(=O)N[C@H](C(=O)NO)C(C)(C)SC)cc3)cc2)cc1` [Compound 240]: the MIC MH 6357 in assay [1] stood at 1.6 µg/mL (≈ 3.01 µM). In [2], this compound yielded an MIC MH 6374 of 1.6 µg/mL (≈ 3.01 µM). In assay [3], this compound had an MIC MH 10720 of 0.4 µg/mL (≈ 0.752 µM). Also, in assay [4], the MIC MH 12587 is 1.6 µg/mL (≈ 3.01 µM). In assay [5], the MIC MH 13065 is 1.6 µg/mL (≈ 3.01 µM). The compound also registered an MIC MH 13093 in assay [6] of 1.6 µg/mL (≈ 3.01 µM). Further, in [7], the MIC PM 6267 turned out to be 0.2 µg/mL (≈ 0.376 µM). The MIC PM 6391 in assay [8] is 0.8 µg/mL (≈ 1.5 µM). For the same compound, in assay [9], the MIC PM 10775 worked out at 0.2 µg/mL (≈ 0.376 µM). The same compound returned an MIC PM 12080 in assay [10] of 0.4 µg/mL (≈ 0.752 µM).
In assay [1], `CSC(C)(C)[C@H](NC(=O)c1ccc(C#Cc2ccc(CNCc3ccncc3)cc2)cc1)C(=O)NO` [Compound 241] showed an MIC MH 6357 of 0.4 µg/mL (≈ 0.796 µM). Besides, in assay [2], the MIC MH 6374 came out at 0.8 µg/mL (≈ 1.59 µM). Besides, the MIC MH 10720 in [3] was not above 0.1 µg/mL. This compound also came in with an MIC MH 12587 in [4] of 0.8 µg/mL (≈ 1.59 µM). In addition, the MIC MH 13065 in assay [5] is 0.4 µg/mL (≈ 0.796 µM). In [6], this compound registered an MIC MH 13093 of 0.4 µg/mL (≈ 0.796 µM). The compound also returned an MIC PM 6267 in [7] not above 0.1 µg/mL. In addition, in assay [8], the MIC PM 6391 was not above 0.1 µg/mL. The same compound displayed an MIC PM 10775 in assay [9] not above 0.1 µg/mL. This compound also showed an MIC PM 12080 in assay [10] not above 0.1 µg/mL.
Compound `CSC(C)(C)[C@H](NC(=O)c1ccc(C#Cc2ccc(CN3CCCC3)cc2)cc1)C(=O)NO` [Compound 242] showed an MIC MH 6357 in assay [1] of 6.3 µg/mL (≈ 13.5 µM). This compound also returned an MIC MH 6374 in assay [2] of 6.3 µg/mL (≈ 13.5 µM). Also, in assay [3], the MIC MH 10720 was 0.8 µg/mL (≈ 1.72 µM). In assay [4], this compound returned an MIC MH 12587 of 6.3 µg/mL (≈ 13.5 µM). This compound also showed an MIC MH 13065 in assay [5] of 3.1 µg/mL (≈ 6.66 µM). In [6], this compound registered an MIC MH 13093 of 3.1 µg/mL (≈ 6.66 µM). The MIC PM 6267 in assay [7] was 0.4 µg/mL (≈ 0.859 µM). For the same compound, the MIC PM 6391 in assay [8] came to 1.6 µg/mL (≈ 3.44 µM). In assay [9], the MIC PM 10775 is 0.2 µg/mL (≈ 0.43 µM). This compound also came in with an MIC PM 12080 in assay [10] of 0.8 µg/mL (≈ 1.72 µM).
`CSC(C)(C)[C@H](NC(=O)c1ccc(C#Cc2ccc(CNC3CCC3)cc2)cc1)C(=O)NO` [Compound 243] registered an MIC MH 6357 in assay [1] of 3.1 µg/mL (≈ 6.66 µM). Further, the MIC MH 6374 in assay [2] is 3.1 µg/mL (≈ 6.66 µM). Moreover, the MIC MH 10720 in assay [3] worked out at 0.4 µg/mL (≈ 0.859 µM). Moreover, the MIC MH 12587 in assay [4] was determined as 3.1 µg/mL (≈ 6.66 µM). This compound also had an MIC MH 13065 in [5] of 1.6 µg/mL (≈ 3.44 µM). Besides, the MIC MH 13093 in [6] was 1.6 µg/mL (≈ 3.44 µM). The compound further displayed an MIC PM 6267 in assay [7] of 0.2 µg/mL (≈ 0.43 µM). The same compound displayed an MIC PM 6391 in assay [8] of 0.8 µg/mL (≈ 1.72 µM). The compound further yielded an MIC PM 10775 in [9] not above 0.1 µg/mL. Further, the MIC PM 12080 in assay [10] worked out at 0.4 µg/mL (≈ 0.859 µM).

The values above are taken from patent publication US11034650B2, “Compounds useful for treating a Mannheimia haemolytica or Histophilus somni infection” (Intervet Inc., priority 2016, dated 2021).
